The assay has as its system HBV. Briefly: HBV-DNA Antiviral Assay Using HepG2.117 Cells (intracellular HBV DNA by qPCR). In kind it is cell-based, hepatitis B virus (genotype D). As to conditions: Hepatitis B virus, HepG2.117. The gist of the method: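 Endpoint: qPCR copy number of intracellular HBV DNA after 3-day compound exposure, with inhibition set relative to the 2% DMSO control. The cells were doxycycline-free HepG2.117 carrying a Tet-off genotype D genome, dosed at nine 4-fold dilutions. A duplicate plate gave ATP-based viability (CC50).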

Results on 24 molecules are retold here after US11591341B2 (ALIGOS THERAPEUTICS, INC., priority 2019, dated 2023).

Structures are written as SMILES. A value given as a limit tells only on which side of the number the result lay.

What is called EC50 is the concentration giving half of the maximal effect. Low values mean greater potency, high ones weaker potency. For the molecule `COC(=O)c1cccc(CNC(=O)c2c3n(c(=O)n2-c2ccc(OC)cc2)CCN(C(=O)c2ccc(Br)c(Cl)c2)C3)c1` [Example 165, methyl 3-[[[7-(4-bromo-3-chloro-benzoyl)-2-(4-methoxyphenyl)-3-oxo-6,8-dihydro-5H-imidazo[1,5-a]pyrazine-1-carbonyl]amino]methyl]benzoate], the 50% effective concentration (EC50) lay in the range of 100 to 500 nM.
`CC(NC(=O)c1c2n(c(=O)n1-c1ccc(OC3CC3)cc1)CCN(C(=O)c1ccc(Br)c(Cl)c1)C2)c1ccc(OC(F)F)cc1F` (racemic) [Example 314, 7-(4-bromo-3-chloro-benzoyl)-2-[4-(cyclopropoxy)phenyl]-3-oxo-N-[rac-(1S)-1-[4-(difluoromethoxy)-2-fluoro-phenyl]ethyl]-6,8-dihydro-5H-imidazo[1,5-a]pyrazine-1-carboxamide] came in with a half-maximal effective concentration (EC50) of 100 to 500 nM.
`COc1ccc(-n2c(C(=O)NCc3ccccc3)c3n(c2=O)CCN(C(=O)c2ccc(Br)c(Cl)c2)C3)cc1` [Example 24, N-benzyl-7-(4-bromo-3-chloro-benzoyl)-2-(4-methoxyphenyl)-3-oxo-6,8-dihydro-5H-imidazo[1,5-a]pyrazine-1-carboxamide] came in with an EC50 of 100 to 500 nM.
In turn, `O=C(NCc1ccccc1-c1ncco1)c1c2n(c(=O)n1-c1ccc(OCC(F)(F)F)cc1)CCN(C(=O)c1ccc(Br)c(Cl)c1)C2` [Example 375, 7-(4-bromo-3-chloro-benzoyl)-N-[(2-oxazol-2-ylphenyl)methyl]-3-oxo-2-[4-(2,2,2-trifluoroethoxy)phenyl]-6,8-dihydro-5H-imidazo[1,5-a]pyrazine-1-carboxamide] showed an EC50 of 100 to 500 nM.
`COc1ccc(-n2c(C(=O)NCc3ccccc3)c3n(c2=O)CCN(C(=O)c2cc4c(C)cccc4[nH]2)C3)cc1` [Example 55, N-benzyl-2-(4-methoxyphenyl)-7-(4-methyl-1H-indole-2-carbonyl)-3-oxo-6,8-dihydro-5H-imidazo[1,5-a]pyrazine-1-carboxamide] displayed an EC50 of 500 to 5000 nM.
Consider `COc1ccc([C@H](C)NC(=O)c2c3n(c(=O)n2-c2ccc(OC)cc2)CCN(C(=O)c2ccc(Br)c(Cl)c2)C3)cc1` (stereo in doubt) [Example 73, 7-(4-bromo-3-chloro-benzoyl)-2-(4-methoxyphenyl)-3-oxo-N-[rac-(1S)-1-(4-methoxyphenyl)ethyl]-6,8-dihydro-5H-imidazo[1,5-a]pyrazine-1-carboxamide], for which the half-maximal effective concentration (EC50) was less than 100 nM.
`NC(=O)COc1ccc(CNC(=O)c2c3n(c(=O)n2-c2ccc(OCC(F)(F)F)cc2)CCN(C(=O)c2ccc(Br)c(Cl)c2)C3)c(F)c1` [Example 303, N-[[4-(2-amino-2-oxo-ethoxy)-2-fluoro-phenyl]methyl]-7-(4-bromo-3-chloro-benzoyl)-3-oxo-2-[4-(2,2,2-trifluoroethoxy)phenyl]-6,8-dihydro-5H-imidazo[1,5-a]pyrazine-1-carboxamide] registered a half-maximal effective concentration (EC50) of 500 to 5000 nM.
The value for `CCOc1ccc(-n2c(C(=O)NCc3ccccc3)c3n(c2=O)CCN(C(=O)c2ccc(Cl)c(Cl)c2)C3)cc1` [Example 51, N-benzyl-7-(3,4-dichlorobenzoyl)-2-(4-ethoxyphenyl)-3-oxo-6,8-dihydro-5H-imidazo[1,5-a]pyrazine-1-carboxamide] was 500 to 5000 nM; that for `C[C@@H](Oc1ccc(-n2c(C(=O)NCc3ccccc3)c3n(c2=O)CCN(C(=O)c2ccc(Br)c(Cl)c2)C3)cc1)C(F)(F)F` (stereo in doubt) [Example 282, N-benzyl-7-(4-bromo-3-chloro-benozyl)-3-oxo-2-[4-[rac-(1R)-2,2,2-trifluoro-1-methyl-ethoxy]phenyl]-6,8-dihydro-5H-imidazo[1,5-a]pyrazine-1-carboxamide] was 500 to 5000 nM.
The value for `NC(=O)COc1ccc(CNC(=O)c2c3n(c(=O)n2-c2ccc(OC4CC4)cc2)CCN(C(=O)c2ccc(Br)c(Cl)c2)C3)c(F)c1` [Example 324, N-[[4-(2-amino-2-oxo-ethoxy)-2-fluoro-phenyl]methyl]-7-(4-bromo-3-chloro-benzoyl)-2-[4-(cyclopropoxy)phenyl]-3-oxo-6,8-dihydro-5H-imidazo[1,5-a]pyrazine-1-carboxamide] was 100 to 500 nM; that for `COc1ccc(-n2c(C(=O)N[C@@H](C)c3ccccc3)c3n(c2=O)CCN(C(=O)c2ccc(Br)c(Cl)c2)C3)cc1` (stereo in doubt) [Example 69, 7-(4-bromo-3-chloro-benzoyl)-2-(4-methoxypehnyl)-3-oxo-N-[rac-(1S)-1-phenylethyl]-6,8-dihydro-5H-imidazo[1,5-a]pyrazine-1-carboxamide] was 100 to 500 nM.
Molecule `C[C@H](NC(=O)c1c2n(c(=O)n1-c1ccc(OC3CC3)cc1)CCN(C(=O)c1ccc(Br)c(Cl)c1)C2)c1ccc(O[C@H](C)C(N)=O)cc1F` (stereo in doubt) [Example 357, 7-(4-bromo-3-chloro-benzoyl)-2-[4-(cyclopropoxy)phenyl]-3-oxo-N-[rac-(1S)-1-[2-fluoro-4-[rac-(1R)-2-amino-1-methyl-2-oxo-ethoxy]phenyl]ethyl]-6,8-dihydro-5H-imidazo[1,5-a]pyrazine-1-carboxamide] displayed an EC50 of 100 to 500 nM.
Regarding `CC(C)Oc1ccc(-n2c(C(=O)NCc3ccccc3)c3n(c2=O)CCN(C(=O)/C=C/c2ccccc2Cl)C3)cc1` [Example 216, N-benzyl-7-[(E)-3-(2-chloropehnyl)prop-2-enoyl]-2-(4-isopropoxyphenyl)-3-oxo-6,8-dihydro-5H-imidazo[1,5-a]pyrazine-1-carboxamide], the concentration for a half-maximal effect (EC50) was greater than 5000 nM.
`O=C(NCc1c(F)ccc2nccnc12)c1c2n(c(=O)n1-c1ccc(-n3cccn3)cc1)CCN(C(=O)c1ccc(Br)c(Cl)c1)C2` [Example 458, 7-(4-bromo-3-chloro-benzoyl)-N-[(6-fluoroquinoxalin-5-yl)methyl]-3-oxo-2-(4-pyrazol-1-ylphenyl)-6,8-dihydro-5H-imidazo[1,5-a]pyrazine-1-carboxamide] yielded an EC50 of 100 to 500 nM.
The molecule `C[C@@H](Oc1ccc([C@@H](C)NC(=O)c2c3n(c(=O)n2-c2ccc(OCC(F)(F)F)cc2)CCN(C(=O)c2ccc(Br)c(Cl)c2)C3)c(F)c1)C(N)=O` (stereo in doubt) [Example 359, 7-(4-bromo-3-chloro-benzoyl)-3-oxo-N-[rac-(1R)-1-[2-fluoro-4-[rac-(1R)-2-amino-1-methyl-2-oxo-ethoxy]phenyl]ethyl]-2-[4-(2,2,2-trifluoroethoxy)phenyl]-6,8-dihydro-5H-imidazo[1,5-a]pyrazine-1-carboxamide] registered an EC50 of 500 to 5000 nM.
In the case of `COc1ccc(CN2C[C@H](O)Cn3c(c4n(c3=O)CCN(C(=O)c3ccc(Br)c(Cl)c3)C4)C2=O)cc1` (stereo in doubt) [Example 194, rac-(11S)-4-(4-bromo-3-chloro-benzoyl)-11-hydroxy-13-[(4-methoxyphenyl)methyl]-4,7,9,13-tetrazatricyclo[7.5.0.0^2,7]tetradec-1-ene-8,14-dione], the EC50 fell in the range of 100 to 500 nM.
`COc1ccc(-n2c(C(=O)NCC3CC3)c3n(c2=O)CCN(C(=O)c2ccc(Cl)c(Cl)c2)C3)cc1` [Example 105, N-(cyclopropylmethyl)-7-(3,4-dichlorobenzoyl)-2-(4-methoxyphenyl)-3-oxo-6,8-dihydro-5H-imidazo[1,5-a]pyrazine-1-carboxamide] yielded an EC50 greater than 5000 nM.
In turn, `COc1ccc(-n2c(C(=O)N[C@@H](c3ccccc3)C(F)(F)F)c3n(c2=O)CCN(C(=O)c2ccc(Br)c(Cl)c2)C3)cc1` (stereo in doubt) [Example 209, 7-(4-bromo-3-chloro-benozyl)-2-(4-methoxyphenyl)-3-oxo-N-[rac-(1S)-2,2,2-trifluoro-1-phenyl-ethyl]-6,8-dihydro-5H-imidazo[1,5-a]pyrazine-1-carboxamide] registered a half-maximal effective concentration (EC50) of 100 to 500 nM.
`COc1ccc(-n2c(C(=O)NCc3ccccn3)c3n(c2=O)CCN(C(=O)c2ccc(Br)c(Cl)c2)C3)cc1` [Example 191, 7-(4-bromo-3-chloro-benzoyl)-2-(4-methoxyphenyl)-3-oxo-N-(2-pyridylmethyl)-6,8-dihydro-5H-imidazo[1,5-a]pyrazine-1-carboxamide] showed a half-maximal effective concentration (EC50) of 500 to 5000 nM.
`C[C@H](NC(=O)c1c2n(c(=O)n1C1CC1)CCN(C(=O)c1ccc(Br)c(Cl)c1)C2)c1ccccc1` (stereo in doubt) [Example 190, 7-(4-bromo-3-chloro-benzoyl)-2-cyclopropyl-3-oxo-N-[rac-(1S)-1-phenylethyl]-6,8-dihydro-5H-imidazo[1,5-a]pyrazine-1-carboxamide]: the concentration giving a half-maximal response (EC50) was in the range of 500 to 5000 nM.
Molecule `O=C(NCc1c(F)cccc1F)c1c2n(c(=O)n1-c1ccc(OC3CC3)cc1)CCN(C(=O)c1ccc(Br)c(Cl)c1)C2` [Example 306, 7-(4-bromo-3-chloro-benzoyl)-2-[4-(cyclopropoxy)phenyl]-N-[(2,6-difluorophenyl)methyl]-3-oxo-6,8-dihydro-5H-imidazo[1,5-a]pyrazine-1-carboxamide] showed an EC50 of 100 to 500 nM.
The value for `N#Cc1cc(C(=O)N2CCn3c(c(C(=O)NCc4ccccc4-c4cccnn4)n(-c4ccc(OC5CC5)cc4)c3=O)C2)ccc1Br` [Example 445, 7-(4-bromo-3-cyano-benzoyl)-2-[4-(cyclopropoxy)phenyl]-3-oxo-N-[(2-pyridazin-3-ylphenyl)methyl]-6,8-dihydro-5H-imidazo[1,5-a]yprazine-1-carboxamide] was 100 to 500 nM; that for `CC1Cn2c(c(C(=O)NCc3ccccc3)n(-c3ccc(OC4CC4)cc3)c2=O)CN1C(=O)c1ccc(Br)c(Cl)c1` (racemic) [Example 301, rac-(6R)-N-benzyl-7-(4-bromo-3-chloro-benzoyl)-2-[4-(cyclopropoxy)phenyl]-6-methyl-3-oxo-6,8-dihydro-5H-imidazo[1,5-a]pyrazine-1-carboxamide] was 500 to 5000 nM.
`CC(C)Oc1ccc(-n2c(C(=O)NCc3ccccc3)c3n(c2=O)CCN(C(=O)c2ccc(Br)c(Cl)c2)C3)cc1` [Example 184, N-benzyl-7-(4-bromo-3-chloro-benzoyl)-2-(4-isopropoxyphenyl)-3-oxo-6,8-dihydro-5H-imidazo[1,5-a]pyrazine-1-carboxamide]: the EC50 is 100 to 500 nM.
